Article PMC10386196, “A First-Class Degrader Candidate Targeting Both KRAS G12D and G12V Mediated by CANDDY Technology Independent of Ubiquitination” (Molecules, 2023)
pIC50, pKd: −log10 of the molar value. Square brackets hold non-standard residues; d marks the D form. Peptide text beside a SMILES is read from it. Nle = CCCC[C@H](N)C(=O)O

Legend:
proteasome β5 = proteasome β5 (Homo sapiens, UniProt P28074); test: Inhibition of proteasome β5 (chymotrypsin-like) activity, Suc-LLVY-AMC substrate; format: biochemical; settings: SE in parentheses, n = 2
Experimental: (§1) Reaction time (min) Reaction time (min)
(§2) Figure S1. Proteasome Inhibitors Modified as Degradation Tags, Related to Figures 2
(§3) (A) Chymotrypsin-like (β5) , trypsin-like (β2) and caspase-like (β1) activities of the pr oteasome were monitor ed by Suc- LLVY-
(§4) AMC (β5 substrate) , Bz- VGR-AMC (β2 substr ate) and Z -LLE-AMC (β1 substrate), respectively. AMC fluorescence was
(§5) m onitor ed by a plate reader with excitation and emission filter s of 360 nm and 460 nm, respectively (DMSO, 30 min = 1) […]

proteasome β2 = proteasome β2 (Homo sapiens, UniProt Q99436); test: Inhibition of proteasome β2 (trypsin-like) activity, Bz-VGR-AMC substrate; format: biochemical; settings: SE in parentheses, n = 2
Experimental: as §1, §2, §3, §4, §5

proteasome β1 = proteasome β1 (Homo sapiens, UniProt P28072); test: Inhibition of proteasome β1 (caspase-like) activity, Z-LLE-AMC substrate; format: biochemical; settings: SE in parentheses, n = 2
Experimental: as §1, §2, §3, §4, §5

ecDHFR [1] = biological target: T1, ecDHFR (Escherichia coli, UniProt P0ABQ4); test: Cellular thermal shift assay (CETSA) for ecDHFR in HeLa cells; format: binding; settings: ecDHFR-HA-GFP-expressing HeLa cells, 3 h treatment
T1 construct: expressed in transfected cells; host or cells: HeLa cells (bicistronic construct co-expressing DsRed)
T1 sequence (P0ABQ4 whole entry): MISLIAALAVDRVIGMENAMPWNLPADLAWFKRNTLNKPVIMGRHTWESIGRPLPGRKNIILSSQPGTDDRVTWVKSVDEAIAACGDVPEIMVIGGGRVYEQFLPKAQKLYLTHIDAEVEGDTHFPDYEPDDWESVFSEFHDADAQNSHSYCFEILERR
Experimental: Figure 2 Proof of principle for the CANDDY Strategy. (A) Structures of degraders 1–3 constructed with TMP and each degradation tag (CANDDY_MLN, CANDDY_ALLN, or CANDDY_BTZ). (B) Comparison of proteasomal inhibitory activity of b2 by 1–3 and each proteasome inhibitor. […] Cell extraction was treated with heat for 3 min and then analyzed via immunoblotting. (D) Degradation rates of ecDHFR by 1–3. The same procedure as in (E) was performed except for 24 h. (E) ecDHFR degradation by 1 for 24 h. The ratio of ecDHFR-HA-GFP/DsRed was detected via flow cytometry.

KRAS G12D [2] = biological target: KRAS G12D; parameters: method as in PMID 22566140; settings: cited from earlier work
KRAS G12D [3] = biological target: T2, KRAS G12D (Homo sapiens, UniProt P01116, G12D); test: KRAS degradation in a cell-free system with 26S proteasome; format: biochemical; settings: only 26S proteasome and target protein, 3 h at 37 °C
Experimental: KRAS G12D (final concentration: 5 ng/µL) and 26S proteasome (final concentration: 8 nM) were incubated with TUS-007 (10, 20, 40 µM), RAS-SOS inhibitor (40 µM), RAS-SOS-NH2 (40 µM), or DMSO in 20 mM Tris-HCl buffer (pH 7.5) containing 20% glycerol for 3 h at 37 °C. To assess the effect of MLN on chemical knockdown, KRAS G12D and 26S proteasome were incubated with DMSO or TUS-007 40 µM in the presence or absence of MLN (1 µM) in the same condition. After centrifugation at 14,000× g for 10 min, the supernatants were analyzed via SDS-PAGE, followed by immunoblotting using an anti-KRAS antibody (1:1000, WH0003845MI, Sigma-Aldrich).

[4] = Solubility (statement in words); format: physicochemical; settings: reason not used as in vivo control
KRAS G12V = biological target: T3, KRAS G12V (Homo sapiens, UniProt P01116, G12V); test: KRAS G12V-HA-GFP degradation in HeLa cells; format: cell-based; settings: exogenously expressed, flow cytometry and immunoblotting
T3 construct: expressed in transfected cells; host or cells: HeLa cells
T3 sequence (P01116 1-188 isoform P01116-2 G12V): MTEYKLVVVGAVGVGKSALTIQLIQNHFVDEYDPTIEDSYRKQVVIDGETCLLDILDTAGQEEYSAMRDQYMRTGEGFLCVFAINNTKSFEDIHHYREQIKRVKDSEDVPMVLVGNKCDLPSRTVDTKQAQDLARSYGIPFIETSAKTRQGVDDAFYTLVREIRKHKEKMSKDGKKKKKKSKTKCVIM
Experimental: (§6) Figure 3 RAS Chemical Knockdown in vitro. (A) Structures of RAS-SOS inhibitor (4), RAS-SOS-NH2 (5), and TUS-007 as a RAS degrader. (B,C) Assessing the binding affinity of TUS-007 to targets KRAS (G12D, G12V, or wild-type) (B) and proteasome β5 (C) using CETSA. Recombinant KRAS or PSMB5 was treated with vehicle, 4, or TUS-007 for 30 min. The mixture was treated with heat and then analyzed via immunoblotting. […] KRAS-HA-GFP and DsRed-expressing HeLa cells were treated and analyzed via immunoblotting. (F) The same procedure was performed as in (D) (mean ± SEM; n = 3) except for 48 h. (G) Ubiquitination-independent proteasomal KRAS G12D degradation. KRAS G12D-HA-GFP and DsRed-expressing HeLa cells were co-treated with TUS-007 and the NAE inhibitor ([…], […]) or PYR-41 (E1 inhibitor, […]) and then analyzed via flow cytometry. […]
(§7) β5 activity β2 activity β1 activity […]
(§8) Figure S3. Proteasomal Inhibitory Activities of TUS-007 and Degradation of KRAS by TUS-007, Related to Figure 3 […]
(§9) Degradation of mutant (G12D and G12V) and wild- type KRAS pr oteins by TUS- 007 was rescued by treatment with the proteasome inhibitor M LN2238 ([…]). […] KRAS G12D-HA-GFP and DsRed-expressing HeLa cells were co-treated with TUS-007 and 17-AAG (HSP90 inhibitor, 2 ∝M), or VER-155008 (HSP70 inhibitor , 2 ∝M) for 24 h and then analyzed by flow cytometry.

KRAS G12D [5] = biological target: T2, KRAS G12D; test: KRAS G12D-HA-GFP degradation in HeLa cells; format: cell-based; parameters: expressed in transfected cells; host or cells: HeLa cells; settings: exogenously expressed, flow cytometry and immunoblotting
Experimental: as §6, §7, §8, §9
Target sequence in this assay (P01116 1-188 isoform P01116-2 G12D): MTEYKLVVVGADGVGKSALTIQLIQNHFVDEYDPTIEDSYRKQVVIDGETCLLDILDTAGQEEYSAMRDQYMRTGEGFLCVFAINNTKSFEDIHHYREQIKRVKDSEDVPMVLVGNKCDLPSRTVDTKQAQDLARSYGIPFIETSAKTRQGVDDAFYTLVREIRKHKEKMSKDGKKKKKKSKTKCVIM

wild-type KRAS = biological target: T4, wild-type KRAS (Homo sapiens, UniProt P01116); test: Wild-type KRAS-HA-GFP degradation in HeLa cells; format: cell-based; settings: exogenously expressed, flow cytometry and immunoblotting
T4 construct: expressed in transfected cells; host or cells: HeLa cells
T4 sequence (P01116 1-188 isoform P01116-2): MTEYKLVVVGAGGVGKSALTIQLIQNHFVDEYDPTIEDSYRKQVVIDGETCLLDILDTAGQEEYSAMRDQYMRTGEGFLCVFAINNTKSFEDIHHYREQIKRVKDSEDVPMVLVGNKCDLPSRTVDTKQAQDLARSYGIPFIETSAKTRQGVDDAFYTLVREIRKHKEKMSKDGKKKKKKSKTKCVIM
Experimental: as §6, §7, §8, §9

ecDHFR [6] = biological target: T1, ecDHFR; format: cell-based
Experimental: Cell extraction was treated with heat for 3 min and then analyzed via immunoblotting. […] The same procedure as in (E) was performed except for 24 h. […] The ratio of ecDHFR-HA-GFP/DsRed was detected via flow cytometry.
HeLa cells co-expressed ecDHF R- HA-GF P and DsRed from a bicistronic construct.
(C) HeLa cells co-expressed ecDHFR-HA-GFP and DsRed from a bicistronic construct. Target-expressing HeLa cells were
treated with a CANDDY molecule (1).

[7] = biological target: β5/β2/β1 of the proteasome (Homo sapiens, UniProt P28072+P28074+Q99436); test: Proteasomal inhibitory activity, stated in words for all subunits; format: biochemical; settings: listed as TMP-CANDDY_MLN (1)
Experimental: as §1, §2, §3, §4, §5

SMILES | pIC50 (proteasome β5) | pIC50 (proteasome β2) | pIC50 (proteasome β1) | target affinity for ecDHFR compared with TMP (CETSA) (ecDHFR [1]) | also measured
CCCC[C@@H](C=O)NC(=O)[C@H](CC(C)C)NC(=O)[C@H](CC(C)C)NC(C)=O [ALLN, reference compound] (Ac-Leu-Leu-[Nle]-aldehyde) | 6.00 | 5.37 | 5.01 |  | 
CCCC[C@H](NC(=O)[C@H](CC(C)C)NC(=O)[C@H](CC(C)C)NC(C)=O)C(=O)NCCCCCCNC(=O)COc1c(OC)cc(Cc2cnc(N)nc2N)cc1OC [compound 2] | 4.34 | < 3.80 | < 3.80 | more efficient | 
CC[C@H](C)[C@H](N)C(=O)Nc1ccc2nc(Cc3c[nH]c4ccccc34)[nH]c2c1 [compound 4, reference compound] |  |  |  |  | pKd (KRAS G12D [2]): 3.72; degradation of KRAS G12D in cell-free system (KRAS G12D [3]): not; solubility [4]: low solubility
CC[C@H](C)[C@H](NC(=O)CCCCCCN)C(=O)Nc1ccc2[nH]c(Cc3c[nH]c4ccccc34)nc2c1 [compound 5] |  |  |  |  | KRAS G12V degradation in HeLa cells (KRAS G12V): no degradation; KRAS G12D degradation in HeLa cells (KRAS G12D [5]): no degradation; degradation of KRAS G12D in cell-free system (KRAS G12D [3]): not; solubility [4]: low solubility; wild-type KRAS degradation in HeLa cells (wild-type KRAS): no degradation
CC(C)C[C@H](NC(=O)CNC(=O)c1cc(Cl)ccc1Cl)B(O)O [MLN2238, reference compound] |  | 5.05 | 7.54 |  | 
COc1cc(Cc2cnc(N)nc2N)cc(OC)c1OCC(=O)NCCCCCCNC(=O)[C@H](CC(C)C)NC(=O)CNC(=O)c1cc(Cl)ccc1Cl [compound 1] | < 3.80 | < 3.80 | < 3.80 | more efficient | ecDHFR degradation (ecDHFR [6]; HeLa cells, 24 h, immunoblotting and flow cytometry (GFP/DsRed)): highest target degradation efficiency; time dependence of ecDHFR degradation (ecDHFR [6]; HeLa cells, flow cytometry): time-dependent ecDHFR degradation; ecDHFR degradation on co-treatment with inhibitors of E1 or E3 (ecDHFR [6]; co-treatment with NAE inhibitor (E3) or PYR-41 (E1), flow cytometry): did not inhibit ecDHFR degradation; proteasomal inhibitory activity (β5, β2, β1) [7]: almost no proteasomal inhibitory activity
COc1cc(Cc2cnc(N)nc2N)cc(OC)c1OCC(=O)NCCCCCCNC(=O)[C@H](CC(C)C)NC(=O)[C@H](Cc1ccccc1)NC(=O)c1cnccn1 [compound 3] | < 3.80 | < 3.80 | < 3.80 | lower | 
